Results from publication PMC7290078, “Agonist bias and agonist‐dependent antagonism at corticotrophin releasing factor receptors” (Pharmacology Research & Perspectives, 2020).
No end group written: not given here.

How the values were obtained:
CRF1 receptor = settings: cited from earlier work
CRF2 receptor (hCRF2α) = biological target: T1, CRF2 receptor (hCRF2α) (Homo sapiens, UniProt Q13324); assay: Antagonism of agonist-mediated cAMP accumulation in Cos7 cells expressing CRF2 receptors; assay type: cell-based; settings: for antagonist potency (pKB): hCRF2α, global Schild analysis, mean ± SEM, n = 5
T1 construct: host or cells: Cos7 cells, transient transfection (PEI), pcDNA3.0/3.1 vector
T1 sequence (Q13324 1-411): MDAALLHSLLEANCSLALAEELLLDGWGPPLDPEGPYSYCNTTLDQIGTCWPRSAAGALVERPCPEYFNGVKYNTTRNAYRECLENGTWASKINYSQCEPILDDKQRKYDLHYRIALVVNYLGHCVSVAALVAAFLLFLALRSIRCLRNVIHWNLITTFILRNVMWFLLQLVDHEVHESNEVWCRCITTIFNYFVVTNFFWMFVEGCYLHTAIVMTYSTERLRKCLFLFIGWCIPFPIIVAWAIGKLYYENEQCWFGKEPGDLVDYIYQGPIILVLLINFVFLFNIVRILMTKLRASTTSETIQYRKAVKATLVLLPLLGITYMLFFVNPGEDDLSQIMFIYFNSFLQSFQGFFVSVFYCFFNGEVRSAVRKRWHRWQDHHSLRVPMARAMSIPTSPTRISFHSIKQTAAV
Text: Plasmids containing hCRF1α and hCRF2α (GenBank accession numbers AY457172 and AY449734) were obtained from the cDNA Resource Centre (Bloomsburg University) and are referred to as CRF1 and CRF2 in this manuscript. Hemagglutinin (HA) epitope‐tagged human Calcitonin (CT) receptor (CT(a) splice variant) and myc‐tagged human RAMP1 were used as described previously. ^27 HA‐tagged human calcitonin receptor‐like receptor (CLR), N‐terminal FLAG‐tagged human RAMP3 and N‐terminal myc‐tagged human RAMP3 were a gift from Professor David Poyner (Aston University) and Professor Patrick Sexton (Monash University), respectively. N‐terminal FLAG‐tagged human RAMP2 was used as described previously. ^28 All receptors and RAMPs were cloned in pcDNA3.0 or pcDNA3.1 plasmid vectors. All plasmid inserts were sequenced at the Centre for Genomics, Proteomics and Metabolomics (University of Auckland) and the sequences were verified prior to use.
Cos7, HEK‐293S, and HEK‐293T cells were cultured as described previously. ^28 , ^29 Cos7 cells were originally supplied by the ATCC to Associate Professor Nigel Birch (University of Auckland). HEK‐293S cells were a gift from Professor David Poyner (Aston University) and HEK‐293T cells a gift from Professor John Taylor (University of Auckland). Briefly, all cell lines were cultured in Dulbecco's Modified Eagle Medium (DMEM) supplemented with 8% heat inactivated fetal bovine serum (FBS) and maintained in a humidified incubator at 37°C with 5% CO2. For transfection, cells were counted (Countess CounterTM; Life Technologies) and plated at a density of 20 000 cells per well in 96‐well plates. The cells were transiently transfected 48 hours prior to assaying using polyethylenimine (PEI), as described previously. ^28 , ^29 In all experiments a total of 0.25 μg DNA was transfected per well. In the majority of experiments 0.25 μg DNA of receptor‐containing plasmid or the pcDNA3.1 plasmid without an insert was used. For experiments involving RAMPs, 0.125 μg of receptor DNA and 0.125 μg of RAMP‐containing plasmid DNA were transfected to give a 1:1 ratio of receptor to RAMP. Where the RAMP or receptor were transfected alone, the ratio of DNA was made up with the pcDNA3.1 plasmid.
cAMP accumulation in Cos7 cells transfected with hCRF1α or hCRF2α receptors was measured using the LANCE cAMP detection assay kit (PerkinElmer Life and Analytical Sciences) as described previously. ^30 Briefly, culture media was removed and replaced with DMEM containing 0.1% bovine albumin serum (BSA) and 1 mmol/L 3‐isobutyl‐1‐methylxanthine (IBMX) for 30 minutes at 37°C. Cells were incubated for an additional 15 minutes at 37°C with media or agonist concentrations of 1 pmol/L to 1 µmol/L for agonist only assays or 10 pmol/L to 10 µmol/L concentrations for antagonist experiments. Antagonists were added simultaneously or immediately prior to the addition of agonists. To stop cell stimulation and extract cAMP, the contents of the wells were replaced with 50 µL absolute ethanol. Samples were left at −20°C for a minimum of 10 minutes. The ethanol was evaporated and replaced with 50 µL of cAMP detection buffer. Samples were shaken for 15 minutes before 5 µL cell lysate was transferred to a white 384‐well optiplate and processed for cAMP quantification as described previously. ^31 Samples were read using an Envision plate reader (PerkinElmer). cAMP concentrations were determined from a standard curve generated in duplicate.
In all experiments the position of peptides and antagonists (pharmacology) or transfected receptors (ELISAs) on assay plates was randomized during each independent experiment, which are independent biological replicates. In all cases, duplicate, triplicate, or quadruplicate technical replicates were conducted for each independent experiment.

CRF2 receptor = tested on: CRF2 receptor; design: method as in PMID 11123370, PMID 12615952; settings: cited from earlier work

Compound	selectivity (CRF1 receptor)	effect on CRF‐mediated cAMP accumulation (CRF2 receptor (hCRF2α); 100 µM, CRF2 receptor)	effect on UCN1‐mediated cAMP accumulation (CRF2 receptor (hCRF2α); 100 µM, CRF2 receptor)	antagonist potency (pKB) (CRF2 receptor (hCRF2α); agonist CRF, cAMP)	antagonist potency (pKB) (CRF2 receptor (hCRF2α); agonist UCN1, cAMP)	binding affinity in words (CRF2 receptor)
CCC(CC)Nc1cc(C)nc(Oc2c(C)cc(C)cc2C)c1C [CP‐376,395]	selective for the CRF1 receptor	no effect	no effect	<4	<4	–
IVLSLDVPIGLLQILLEQARARAAREQATTNARILARVGHC-NH2 (C-terminus assumed) [UCN2]	–	–	–	–	–	high affinity
